Results reported in patent publication US9924716B2, “Molecules having pesticidal utility, and intermediates, compositions, and processes, related thereto” (Dow AgroSciences LLC, priority 2016, dated 2018).

Assays:
Assay type in all cases: in vivo
[1] = tested on: Beet Armyworm (Spodoptera exigua, LAPHEG) second instar larvae; test: Bioassay on Beet Armyworm (BAW), 128-well diet tray assay; settings: Beet Armyworm, Table ABC Biological Results, read-out: BAW rating
Method: (§1) Certain molecules disclosed in this document were tested against BAW, CEW, and CL using procedures described in the following examples. In the reporting of the results, the “BAW, CEW, & CL Rating Table” was used (See Table Section).
Bioassays on BAW were conducted using a 128-well diet tray assay. one to five second instar BAW larvae were placed in each well (3 mL) of the diet tray that had been previously filled with 1 mL of artificial diet to which 50 μg/cm^2 of the test molecule (dissolved in 50 μL of 90:10 acetone-water mixture) had been applied (to each of eight wells) and then allowed to dry. Trays were covered with a clear self-adhesive cover and held at 25° C., 14:10 light-dark for five to seven days. Percent mortality was recorded for the larvae in each well; activity in the eight wells was then averaged. The results are indicated in the table entitled “Table ABC: Biological Results” (See Table Section).
(§2) Bioassays on BAW and CL were conducted according to the procedures outlined in Example A: Bioassays on Beet Armyworm (“BAW”) and Cabbage Looper (“CL”) using the indicated concentrations.

[2] = tested on: Cabbage Looper (Trichoplusia ni, TRIPNI) second instar larvae; test: Bioassay on Cabbage Looper (CL), 128-well diet tray assay; settings: Cabbage Looper, Table ABC Biological Results, read-out: CL rating
Method: as §1
Bioassays on CL were conducted using a 128-well diet tray assay. one to five second instar CL larvae were placed in each well (3 mL) of the diet tray that had been previously filled with 1 mL of artificial diet to which 50 μg/cm^2 of the test molecule (dissolved in 50 μL of 90:10 acetone-water mixture) had been applied (to each of eight wells) and then allowed to dry. Trays were covered with a clear self-adhesive cover and held at 25° C., 14:10 light-dark for five to seven days. Percent mortality was recorded for the larvae in each well; activity in the eight wells was then averaged. The results are indicated in the table entitled “Table ABC: Biological Results” (See Table Section).
as §2

[3] = tested on: Yellow Fever Mosquito (Aedes aegypti, AEDSAE) larvae; test: Bioassay on Yellow Fever Mosquito (YFM), 96-well plate larval assay; settings: Table ABC Biological Results
Method: Certain molecules disclosed in this document were tested against YFM using procedures described in the following paragraph. In the reporting of the results, the “GPA & YFM Rating Table” was used (See Table Section).
Master plates containing 400 μg of a molecule dissolved in 100 μL of dimethyl sulfoxide (DMSO) (equivalent to a 4000 ppm solution) are used. A master plate of assembled molecules contains 15 μL per well. To this plate, 135 μL of a 90:10 water:acetone mixture is added to each well. A robot (Biomek® NXP Laboratory Automation Workstation) is programmed to dispense 15 μL aspirations from the master plate into an empty 96-well shallow plate (“daughter” plate). There are 6 reps (“daughter” plates) created per master. The created daughter plates are then immediately infested with YFM larvae.
The day before plates are to be treated, mosquito eggs are placed in Millipore water containing liver powder to begin hatching (4 g. into 400 mL). After the daughter plates are created using the robot, they are infested with 220 μL of the liver powder/larval mosquito mixture (about 1 day-old larvae). After plates are infested with mosquito larvae, a non-evaporative lid is used to cover the plate to reduce drying. Plates are held at room temperature for 3 days prior to grading. After 3 days, each well is observed and scored based on mortality. The results are indicated in the table entitled “Table ABC: Biological Results” (See Table Section).

[4] = tested on: Green Peach Aphid (Myzus persicae, MYZUPE); test: Bioassay on Green Peach Aphid (GPA), foliar spray on cabbage seedlings; settings: Table ABC Biological Results
Method: Certain molecules disclosed in this document were tested against GPA using procedures described in the following example. In the reporting of the results, the “GPA & YFM Rating Table” was used (See Table Section). Cabbage seedlings grown in 3-inch pots, with 2-3 small (3-5 cm) true leaves, were used as test substrate. The seedlings were infested with 20-50 GPA (wingless adult and nymph stages) one day prior to chemical application. Four pots with individual seedlings were used for each treatment. Test molecules (2 mg) were dissolved in 2 mL of acetone/methanol (1:1) solvent, forming stock solutions of 1000 ppm test molecule. The stock solutions were diluted 5× with 0.025% Tween 20 in water to obtain the solution at 200 ppm test molecule. A hand-held aspirator-type sprayer was used for spraying a solution to both sides of […] leaves until runoff. Reference plants (solvent check) were sprayed with the diluent only containing 20% by volume of acetone/methanol (1:1) solvent. Treated plants were held in a holding room for three days at approximately 25° C. and ambient relative humidity (RH) prior to grading. […] Percent Control was measured by using Abbott's correction formula (W. S. Abbott, “A Method of Computing the Effectiveness of an Insecticide” J. Econ. Entomol. 18 (1925), pp. 265-267) as follows. […]

| SMILES | pest or weed control at 50 µg/cm2 [1] | pest or weed control at 50 µg/cm2 [2] | YFM rating [3] | GPA rating [4] |
| --- | --- | --- | --- | --- |
| C[C@H](NC(=O)CCC(F)(F)F)NC(=O)c1ccc(/C(F)=C/C(c2ccc(Cl)c(Cl)c2)C(F)(F)F)cc1C(F)(F)F (stereo partly drawn) [F14, 4-((Z)-3-(3,4-Dichlorophenyl)-1,4,4,4-tetrafluorobut-1-en-1-yl)-N—((R)-1-(4,4,4-trifluorobutanamido)ethyl)-2-(trifluoromethyl)benzamide] | 50 to 100% | 50 to 100% | A (80-100) | – |
| C[C@H](NC(=O)CCC(F)(F)F)NC(=O)c1ccc(/C(F)=C/C(c2cc(Br)c(Cl)c(Br)c2)C(F)(F)F)cc1C(F)(F)F (stereo partly drawn) [F30, 4-((Z)-3-(3,5-Dibromo-4-chlorophenyl)-1,4,4,4-tetrafluorobut-1-en-1-yl)-N—((R)-1-(4,4,4-trifluorobutanamido)ethyl)-2-(trifluoromethyl)benzamide] | 50 to 100% | 50 to 100% | A (80-100) | – |
| C[C@H](NC(=O)CC(F)(F)F)NC(=O)c1ccc(/C(F)=C/C(c2cc(Cl)cc(Cl)c2)C(F)(F)F)cc1C(F)(F)F (stereo partly drawn) [F11, 4-((Z)-3-(3,5-dichlorophenyl)-1,4,4,4-tetrafluorobut-1-en-1-yl)-2-(trifluoromethyl)-N—((R)-1-(3,3,3-trifluoropropanamido)ethyl)benzamide] | 50 to 100% | 50 to 100% | A (80-100) | – |
| C[C@H](NC(=O)CCC(F)(F)F)NC(=O)c1ccc(/C(F)=C/C(c2cc(Cl)cc(Cl)c2)C(F)(F)F)cc1C(F)(F)F (stereo partly drawn) [F12, 4-((Z)-3-(3,5-Dichlorophenyl)-1,4,4,4-tetrafluorobut-1-en-1-yl)-N—((R)-1-(4,4,4-trifluorobutanamido)ethyl)-2-(trifluoromethyl)benzamide] | 50 to 100% | 50 to 100% | A (80-100) | – |
| C[C@H](NC(=O)CC(F)(F)F)NC(=O)c1ccc(/C(F)=C/C(c2cc(Cl)c(Br)c(Cl)c2)C(F)(F)F)cc1C(F)(F)F (stereo partly drawn) [F31, 4-((Z)-3-(4-Bromo-3,5-dichlorophenyl)-1,4,4,4-tetrafluorobut-1-en-1-yl)-2-(trifluoromethyl)-N—((R)-1-(3,3,3-trifluoropropanamido)ethyl)benzamide] | 50 to 100% | 50 to 100% | A (80-100) | B (More than 0-Less than 80) |
| Cc1cc(C(/C=C(\F)c2ccc(C(=O)N[C@H](C)NC(=O)CC(F)(F)F)c(C(F)(F)F)c2)C(F)(F)F)cc(C)c1Cl (stereo partly drawn) [F24, 4-((Z)-3-(4-Chloro-3,5-dimethylphenyl)-1,4,4,4-tetrafluorobut-1-en-1-yl)-2-(trifluoromethyl)-N—((R)-1-(3,3,3-trifluoropropanamido)ethyl)benzamide] | 50 to 100% | 50 to 100% | A (80-100) | – |
| C[C@H](NC(=O)CC(F)(F)F)NC(=O)c1ccc(/C(F)=C/C(c2cc(Cl)cc(Br)c2)C(F)(F)F)cc1C(F)(F)F (stereo partly drawn) [F36, 4-((Z)-3-(3-Bromo-5-chlorophenyl)-1,4,4,4-tetrafluorobut-1-en-1-yl)-2-(trifluoromethyl)-N—((R)-1-(3,3,3-trifluoropropanamido)ethyl)benzamide] | 50 to 100% | 50 to 100% | A (80-100) | – |
| C[C@H](NC(=O)CC(F)(F)F)NC(=O)c1ccc(/C(F)=C/C(c2ccc(Cl)c(F)c2)C(F)(F)F)cc1C(F)(F)F (stereo partly drawn) [PF2, 4-((Z)-3-(4-Chloro-3-fluorophenyl)-1,4,4,4-tetrafluorobut-1-en-1-yl)-2-(trifluoromethyl)-N—((R)-1-(3,3,3-trifluoropropanamido)ethyl)benzamide] | 50 to 100% | 50 to 100% | A (80-100) | – |
| C[C@H](NC(=O)CCC(F)(F)F)NC(=O)c1ccc(/C(F)=C/C(c2ccc(F)c(Cl)c2)C(F)(F)F)cc1C(F)(F)F (stereo partly drawn) [PF3, 4-((Z)-3-(3-Chloro-4-fluorophenyl)-1,4,4,4-tetrafluorobut-1-en-1-yl)-N—((R)-1-(4,4,4-trifluorobutanamido)ethyl)-2-(trifluoromethyl)benzamide] | 50 to 100% | 50 to 100% | B (More than 0-Less than 80) | – |
| C[C@H](NC(=O)CCC#N)NC(=O)c1ccc(/C(F)=C/C(c2cc(Cl)c(Cl)c(Cl)c2)C(F)(F)F)cc1C(F)(F)F (stereo partly drawn) [F41, N—((R)-1-(3-Cyanopropanamido)ethyl)-4-((Z)-1,4,4,4-tetrafluoro-3-(3,4,5-trichlorophenyl)but-1-en-1-yl)-2-(trifluoromethyl)benzamide] | 50 to 100% | 50 to 100% | A (80-100) | – |
| C[C@H](NC(=O)CCC(F)(F)F)NC(=O)c1ccc(/C(F)=C/C(c2cc(Cl)c(Br)c(Cl)c2)C(F)(F)F)cc1C(F)(F)F (stereo partly drawn) [F15, 4-((Z)-3-(4-Bromo-3,5-dichlorophenyl)-1,4,4,4-tetrafluorobut-1-en-1-yl)-N—((R)-1-(4,4,4-trifluorobutanamido)ethyl)-2-(trifluoromethyl)benzamide] | 50 to 100% | 50 to 100% | A (80-100) | – |
| C[C@H](NC(=O)CC(F)(F)F)NC(=O)c1ccc(/C(F)=C/C(c2ccc(Cl)c(Cl)c2)C(F)(F)F)cc1C(F)(F)F (stereo partly drawn) [F13, 4-((Z)-3-(3,4-Dichlorophenyl)-1,4,4,4-tetrafluorobut-1-en-1-yl)-2-(trifluoromethyl)-N—((R)-1-(3,3,3-trifluoropropanamido)ethyl)benzamide] | 50 to 100% | 50 to 100% | A (80-100) | – |
| C=Cc1c(Cl)cc(C(/C=C(\F)c2ccc(C(=O)N[C@H](C)NC(=O)CC(F)(F)F)c(C(F)(F)F)c2)C(F)(F)F)cc1Cl (stereo partly drawn) [F18, 4-((Z)-3-(3,5-Dichloro-4-vinylphenyl)-1,4,4,4-tetrafluorobut-en-1-yl)-2-(trifluoromethyl)-N—((R)-1-(3,3,3-trifluoropropanamido)ethyl)benzamide] | 50 to 100% | 50 to 100% | A (80-100) | – |
| C[C@H](NC(=O)CCC(F)(F)F)NC(=O)c1ccc(/C(F)=C/C(c2cc(Br)cc(Br)c2)C(F)(F)F)cc1C(F)(F)F (stereo partly drawn) [F23, 4-((Z)-3-(3,5-Dibromophenyl)-1,4,4,4-tetrafluorobut-1-en-1-yl)-N—((R)-1-(4,4,4-trifluorobutanamido)ethyl)-2-(trifluoromethyl)benzamide] | 50 to 100% | 50 to 100% | A (80-100) | – |
